Laboratory results: patent publication US20240336577A1, “PYRAZINE COMPOUND, AND METHOD OF PREPARATION AND USE THEREOF” (SHENZHEN OLIVE BIOPHARMACEUTICALS CO., LTD, priority 2020, published 2024)

Key:
[1] = tested on: ALS (SOD-G93A) transgenic mice; assay: Limb grip force test in ALS transgenic mice; assay type: in vivo; settings: different dosages of OLB-1, OLB-2, riluzole 5 mg/kg, FIG. 7
Experimental: The limb grip force test is used directly to assess muscle strength in mice. […] After the start of administration, the grip force of the mice was tested every two weeks, and the measurement was repeated three times for each mouse, and the maximum among the three results was taken as a maximum grip force of the mice. […] Data were presented as mean±SEM; n=10 per group. One-way ANOVA and multiple range test show differences between the two groups. **p<0.01, ***p<0.001 vs. WT (normal control) group; #p<0.05, ##p<0.01 vs. ALS (SOD-G93A) group.

[2] = tested on: SH—SY5Y neuroblastoma cells; assay: LPS-induced inflammatory factors and oxidative stress-related proteins, ELISA kit; assay type: cell-based; settings: 1 μg/mL LPS 24 h, mean±SEM, n=8; for TNF-alpha: differentiated SH-SY5Y, supernatant
Experimental: The SH—SY5Y cells were recovered and cultured, and the cells in the logarithmic growth phase were taken. After 24 h of incubation, SH—SY5Y neuroblastoma cells were treated with 1 μM all-trans retinoic acid to induce differentiation, and then inoculated into a 6-well culture dish for 24 h of incubation. The medium was treated with chemicals feed at 0.2 μM (L) or 1 μM (H) and 1 μg/mL LPS for 24 h, a supernatant medium was aspirated, and changes of inflammatory factors and oxidative stress-related proteins were measured by an ELISA kit. Data were presented as mean±SEM; n=8 per group. One-way ANOVA and multiple range test were adopted to show differences between the two groups. a, p<0.05 vs. LPS group; b, p<0.01 vs. LPS group; c, p<0.001 vs. LPS group.

[3] = tested on: ALS (SOD-G93A) transgenic mice; assay: Pole climbing test in ALS transgenic mice; assay type: in vivo; settings: different dosages of OLB-1, OLB-2, riluzole 5 mg/kg, FIG. 6
Excerpt: The pole climbing test is generally used to evaluate a motor coordination ability and motor delay of the limbs in mice. A homemade wooden pole about 50 cm long and about 1 cm in diameter was wrapped with medical gauze to increase friction of the wooden pole. The wooden pole was put vertically on a horizontal table, the mouse tail was grabbed such that the mouse head was facing down, with limbs grabbing a top of the pole; after releasing the mouse tail, timing was started, and it was ensured that the mouse crawled downward without external force, and the time was recorded for the mouse to climb from the top of the pole to a bottom platform (a standard was that mouse hind limbs were landed on the ground). […] An average of the three pole climbing times of mice was calculated as a final pole climbing time. […] Data were presented as mean±SEM; n=10 per group. One-way ANOVA and multiple range test were adopted to show differences between the two groups. ***p<0.001 vs. WT (normal control) group; #p<0.05, ##p<0.01 vs. ALS (SOD-G93A) group.

5*FAD mice [4] = assay: Memory impairment in 5*FAD mice, electrical jumping (errors jumping off the platform); assay type: in vivo; settings: 6-month-old 5*FAD mice treated 3 months, low and high dosage; FIG. 5
Experimental: After 6-month-old 5*FAD mice were treated with OLB-1 and OLB-2 for 3 months, the number of errors that the mice jumped off the platform was detected by electrical jumping. 5*FAD mice were treated with low-dosage and high-dosage OLB-1 (low dosage: 2.31 mg/kg, 0.007 mmol/kg; high dosage: 11.70 mg/kg, 0.037 mmol/kg) and OLB-2 (low dosage: 2.3 mg/kg, 0.007 mmol/kg; high dosage: 11.67 mg/kg, 0.037 mmol/kg) and TMP (5.0 mg/kg, 0.037 mmol/kg, the same below). Data were presented as mean±SEM; n=10 per group. One-way ANOVA and multiple range test were adopted to show differences between the two groups. ***p<0.001 vs. WT group; #p<0.05, ##p<0.01 vs. 5*FAD group.

5*FAD mice [5] = assay: Pro-inflammatory factors in hippocampus of 5*FAD mice, ELISA; assay type: in vivo; settings: 6-month-old 5*FAD mice treated 3 months, low and high dosage; FIG. 3 and FIG. 4
Experimental: After 6-month-old 5*FAD mice were treated with OLB-1 and OLB-2 for 3 months, the levels of IL-1β (A) and TNFα (B) in mouse hippocampus were detected by ELISA. 5*FAD mice were treated with low-dosage and high-dosage OLB-1 (low dosage: 2.31 mg/kg, 0.007 mmol/kg; high dosage: 11.70 mg/kg, 0.037 mmol/kg, the same below) and OLB-2 (low dosage: 2.3 mg/kg, 0.007 mmol/kg; high dosage: 11.67 mg/kg, 0.037 mmol/kg, the same below) and TMP (5.0 mg/kg, 0.037 mmol/kg, the same below). Data were presented as mean±SEM; n=5 to 6 per group. One-way ANOVA and multiple range test were adopted to show differences between the two groups. **p<0.01, ***p<0.001 vs. WT group; #p<0.05, ##p<0.01, ###p<0.001 vs. 5*FAD group.

[6] = tested on: 6-OHDA Parkinson's disease rats; assay: APO-induced rotations in 6-OHDA Parkinson's disease rats; assay type: in vivo; settings: APO-induced 6-OHDA rats, 2 weeks of treatment; different dosages of OLB-1, OLB-2; levodopa 25 mg/kg; FIG. 8
Excerpt: There is no rotation in a sham-operated group, and there is no significant difference between the groups injected with 6-OHDA, and there are about 180 rotations. […] Data were presented as mean±SEM; n=9-10 per group. One-way ANOVA and multiple range test were adopted to show differences between the two groups. *p<0.05, **p<0.01 vs. before 6-OHDA group.

db/db mice = assay: Urinary protein level in db/db mice, 90 d administration; assay type: in vivo; settings: once/d 90 d, OLB-1 11.7 mg/kg, OLB-2 11.67 mg/kg, FIG. 2
Experimental: Mice of a normal control group and model mice were given normal saline 10 ml/kg/d, Losartan 10 mg/kg, TMP (5.0 mg/kg, 0.037 mmol/kg), OLB-1 (11.7 mg/kg, 0.037 mmol/kg), and OLB-2 (11.67 mg/kg, […]), at a volume of 10 mL/kg, once/d, for continuous administration of 90 d, urine protein levels were measured after urine collection. Data were presented as mean±SEM; n=6 per group. One-way ANOVA and multiple range test were adopted to show differences between the two groups. a, p<0.05 vs. db/db group; c, p<0.001 vs. db/db group.

Cc1nc(C)c(COC(=O)OCCc2ccc(O)cc2)nc1C [OLB-1]
limb grip force [1]: effectively increase the limb force | GSH-Px ([2]; compound 0.2 μM (L)): 8.39 ± 0.69(c) umol/mg | IL1 ([2]; compound 0.2 μM (L)): 10.94 ± 1.48(a) pg/ml | IL6 ([2]; compound 0.2 μM (L)): 11.60 ± 1.39(a) pg/ml | MDA ([2]; compound 0.2 μM (L)): 16.15 ± 1.26(c) nmol/mg | SOD ([2]; compound 0.2 μM (L)): 12.58 ± 0.72(b) nU/ml | GSH-Px ([2]; compound 1 μM (H)): 13.71 ± 0.84(c) umol/mg | IL1 ([2]; compound 1 μM (H)): 8.46 ± 1.33(b) pg/ml | IL6 ([2]; compound 1 μM (H)): 7.97 ± 1.61(c) pg/ml | MDA ([2]; compound 1 μM (H)): 10.51 ± 0.74(c) nmol/mg | SOD ([2]; compound 1 μM (H)): 16.76 ± 0.38(c) nU/ml | TNF-alpha ([2]; compound 0.2 μM (L)): 9.64 ± 1.56(a) pg/ml | TNF-alpha ([2]; compound 1 μM (H)): 6.78 ± 1.67(c) pg/ml | pole climbing time / symptoms of bradykinesia [3]: significantly improve the symptoms of bradykinesia | memory impairment (number of errors jumping off the platform) (5*FAD mice [4]): significantly improve memory impairment | proinflammatory cytokine IL-1β in hippocampus (5*FAD mice [5]): significantly reduced | proinflammatory cytokine TNF-α in hippocampus (5*FAD mice [5]): significantly reduced | number of rotations [6]: effectively reduce the number of rotations | urinary protein levels (db/db mice): significantly reduced urinary protein levels

Cc1nc(C)c(CNC(=O)OCCc2ccc(O)cc2)nc1C [OLB-2]
limb grip force [1]: effectively increase the limb force | GSH-Px ([2]; compound 0.2 μM (L)): 7.93 ± 1.05(b) umol/mg | IL1 ([2]; compound 0.2 μM (L)): 10.34 ± 1.89(a) pg/ml | IL6 ([2]; compound 0.2 μM (L)): 11.05 ± 1.87(a) pg/ml | MDA ([2]; compound 0.2 μM (L)): 15.75 ± 0.95(c) nmol/mg | SOD ([2]; compound 0.2 μM (L)): 12.13 ± 0.65(b) nU/ml | GSH-Px ([2]; compound 1 μM (H)): 13.40 ± 1.24(c) umol/mg | IL1 ([2]; compound 1 μM (H)): 7.37 ± 1.58(c) pg/ml | IL6 ([2]; compound 1 μM (H)): 8.19 ± 1.24(c) pg/ml | MDA ([2]; compound 1 μM (H)): 9.37 ± 0.73(c) nmol/mg | SOD ([2]; compound 1 μM (H)): 15.16 ± 1.52(c) nU/ml | TNF-alpha ([2]; compound 0.2 μM (L)): 9.92 ± 1.44(b) pg/ml | TNF-alpha ([2]; compound 1 μM (H)): 6.99 ± 1.31(c) pg/ml | pole climbing time / symptoms of bradykinesia [3]: significantly improve the symptoms of bradykinesia | memory impairment (number of errors jumping off the platform) (5*FAD mice [4]): significantly improve memory impairment | proinflammatory cytokine IL-1β in hippocampus (5*FAD mice [5]): significantly reduced | proinflammatory cytokine TNF-α in hippocampus (5*FAD mice [5]): significantly reduced | number of rotations [6]: effectively reduce the number of rotations | urinary protein levels (db/db mice): significantly reduced urinary protein levels
